Source: patent US12077503B2, “Substituted cyclic amides and their use as herbicides” (FMC CORPORATION, priority 2015, dated 2024)

Columns and labels:
Format in all cases: in vivo
Kochia (Kochia scoparia) [1] = experiment: Test A preemergence; details: Bassia scoparia, pre-emergence, 240 h, 0 to 100 scale where 0 is no effect and 100 is complete control, read-out: Kochia plant response rating; for pest or weed control at 31 g/ha: 31 g ai/ha, Preemergence; for pest or weed control at 125 g/ha: 125 g ai/ha, preemergence, approx. 10 d
How it was run: (§1)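 Greenhouse, ~10 d after spray; visual injury vs untreated controls, 0 = no effect, 100 = complete control. Preemergence: directed soil spray over planted seeds. Postemergence: plants 2–10 cm, 1–2 leaf stage. Loam/sand blend. Compound in non-phytotoxic solvent with surfactant.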

[2] = tested on: barnyardgrass (Echinochloa crus-galli); experiment: Test A preemergence; details: Echinochloa crus-galli, pre-emergence, 240 h, 0 to 100 scale where 0 is no effect and 100 is complete control, read-out: Barnyardgrass plant response rating; for pest or weed control at 31 g/ha: 31 g ai/ha, Preemergence; for pest or weed control at 125 g/ha: 125 g ai/ha, preemergence, approx. 10 d
How it was run: as §1

[3] = tested on: giant foxtail (Setaria faberii); experiment: Test A preemergence; details: Setaria faberi, pre-emergence, 240 h, 0 to 100 scale where 0 is no effect and 100 is complete control, read-out: Foxtail, Giant plant response rating; for pest or weed control at 31 g/ha: 31 g ai/ha, Preemergence; for pest or weed control at 125 g/ha: 125 g ai/ha, preemergence, approx. 10 d
How it was run: as §1

[4] = tested on: pigweed (Amaranthus retroflexus); experiment: Test A preemergence; details: Amaranthus retroflexus, pre-emergence, 240 h, 0 to 100 scale where 0 is no effect and 100 is complete control, read-out: Pigweed plant response rating; for pest or weed control at 31 g/ha: 31 g ai/ha, Preemergence; for pest or weed control at 125 g/ha: 125 g ai/ha, preemergence, approx. 10 d
[5] = tested on: ragweed (common ragweed, Ambrosia elatior); experiment: Test A preemergence; details: Ambrosia artemisiifolia, pre-emergence, 240 h, 0 to 100 scale where 0 is no effect and 100 is complete control, read-out: Ragweed plant response rating; for pest or weed control at 31 g/ha: 31 g ai/ha, Preemergence; for pest or weed control at 125 g/ha: 125 g ai/ha, preemergence, approx. 10 d
How it was run: as §1

[6] = tested on: ryegrass, Italian (Italian ryegrass, Lolium multiflorum); experiment: Test A preemergence; details: Lolium multiflorum, pre-emergence, 240 h, 0 to 100 scale where 0 is no effect and 100 is complete control, read-out: Ryegrass, Italian plant response rating; for pest or weed control at 31 g/ha: 31 g ai/ha, Preemergence; for pest or weed control at 125 g/ha: 125 g ai/ha, preemergence, approx. 10 d
How it was run: as §1

[7] = tested on: Galium (catchweed bedstraw, Galium aparine); experiment: Test A postemergence; details: Galium, post-emergence, 240 h; for pest or weed control at 125 g/ha: 125 g ai/ha, postemergence, visual injury vs untreated controls after approx. 10 d, 0 = no effect, 100 = complete control, read-out: Galium plant response rating (0 to 100 scale); for pest or weed control at 31 g/ha: Postemergence, 31 g ai/ha, visual injury after approx. 10 d, 0 to 100 scale, 0 no effect, 100 complete control, read-out: Plant response rating, Galium
How it was run: as §1

Kochia (Kochia scoparia) [8] = experiment: Test A postemergence; details: Bassia scoparia, post-emergence, 240 h; for pest or weed control at 125 g/ha: 125 g ai/ha, postemergence, visual injury vs untreated controls after approx. 10 d, 0 = no effect, 100 = complete control, read-out: Kochia plant response rating (0 to 100 scale); for pest or weed control at 31 g/ha: Postemergence, 31 g ai/ha, visual injury after approx. 10 d, 0 to 100 scale, 0 no effect, 100 complete control, read-out: Plant response rating, Kochia
How it was run: as §1

[9] = tested on: barnyardgrass (Echinochloa crus-galli); experiment: Test A postemergence; details: Echinochloa crus-galli, post-emergence, 240 h; for pest or weed control at 125 g/ha: 125 g ai/ha, postemergence, visual injury vs untreated controls after approx. 10 d, 0 = no effect, 100 = complete control, read-out: Barnyardgrass plant response rating (0 to 100 scale); for pest or weed control at 31 g/ha: Postemergence, 31 g ai/ha, visual injury after approx. 10 d, 0 to 100 scale, 0 no effect, 100 complete control, read-out: Plant response rating, Barnyardgrass
How it was run: as §1

[10] = tested on: blackgrass (Alopecurus myosuroides); experiment: Test A postemergence; details: Alopecurus myosuroides, post-emergence, 240 h; for pest or weed control at 125 g/ha: 125 g ai/ha, postemergence, visual injury vs untreated controls after approx. 10 d, 0 = no effect, 100 = complete control, read-out: Blackgrass plant response rating (0 to 100 scale); for pest or weed control at 31 g/ha: Postemergence, 31 g ai/ha, visual injury after approx. 10 d, 0 to 100 scale, 0 no effect, 100 complete control, read-out: Plant response rating, Blackgrass
How it was run: as §1

corn (Zea mays) = experiment: Test A postemergence; details: Zea mays, post-emergence, 240 h; for plant injury at 125 g/ha: 125 g ai/ha, postemergence, visual injury vs untreated controls after approx. 10 d, 0 = no effect, 100 = complete control, read-out: Corn plant response rating (0 to 100 scale); for Corn plant response rating (crop injury, 0 = no effect, 100 = complete kill) at 31 g/ha: Postemergence, 31 g ai/ha, visual injury after approx. 10 d, 0 to 100 scale, 100 complete control
How it was run: as §1

[11] = tested on: giant foxtail (Setaria faberii); experiment: Test A postemergence; details: Setaria faberi, post-emergence, 240 h; for pest or weed control at 125 g/ha: 125 g ai/ha, postemergence, visual injury vs untreated controls after approx. 10 d, 0 = no effect, 100 = complete control, read-out: Foxtail, Giant plant response rating (0 to 100 scale); for pest or weed control at 31 g/ha: Postemergence, 31 g ai/ha, visual injury after approx. 10 d, 0 to 100 scale, 0 no effect, 100 complete control, read-out: Plant response rating, Foxtail, Giant
How it was run: as §1

[12] = tested on: pigweed (Amaranthus retroflexus); experiment: Test A postemergence; details: Amaranthus retroflexus, post-emergence, 240 h, 125 g ai/ha, postemergence, visual injury vs untreated controls after approx. 10 d; 0 = no effect, 100 = complete control; read-out: Pigweed plant response rating (0 to 100 scale)
How it was run: as §1

[13] = tested on: ragweed (common ragweed, Ambrosia elatior); experiment: Test A postemergence; details: Ambrosia artemisiifolia, post-emergence, 240 h, 125 g ai/ha, postemergence, visual injury vs untreated controls after approx. 10 d; 0 = no effect, 100 = complete control; read-out: Ragweed plant response rating (0 to 100 scale)
How it was run: as §1

[14] = tested on: ryegrass, Italian (Italian ryegrass, Lolium multiflorum); experiment: Test A postemergence; details: Lolium multiflorum, post-emergence, 240 h, 125 g ai/ha, postemergence, visual injury vs untreated controls after approx. 10 d; 0 = no effect, 100 = complete control; read-out: Ryegrass, Italian plant response rating (0 to 100 scale)
How it was run: as §1

[15] = tested on: wheat (Triticum aestivum); experiment: Test A postemergence; details: Triticum aestivum, post-emergence, 240 h, 125 g ai/ha, postemergence, visual injury vs untreated controls after approx. 10 d; 0 = no effect, 100 = complete control; read-out: Wheat plant response rating (0 to 100 scale)
How it was run: as §1

[16] = tested on: barnyardgrass (Echinochloa crus-galli); experiment: Test B flooded paddy test; details: Echinochloa crus-galli, 250 g ai/ha, Flood; 0 to 100 scale where 0 is no effect and 100 is complete control; read-out: Barnyardgrass plant response rating
How it was run: (§2)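 2-leaf plants; pots flooded 3 cm over soil; cpd added to paddy water; depth held; greenhouse 13–15 d; visual rating vs controls, 0 = no effect, 100 = complete control.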

[17] = tested on: ducksalad (Heteranthera limosa); experiment: Test B flooded paddy test; details: Heteranthera limosa, 250 g ai/ha, Flood; 0 to 100 scale where 0 is no effect and 100 is complete control; read-out: Ducksalad plant response rating
How it was run: as §2

rice (Oryra sativa) = experiment: Test B flooded paddy test; details: Oryza sativa, 250 g ai/ha, Flood; 0 to 100 scale where 0 is no effect and 100 is complete control; read-out: Rice plant response rating
How it was run: as §2

[18] = tested on: sedge, umbrella (small-flower umbrella sedge, Cyperus difformis); experiment: Test B flooded paddy test; details: Cyperus difformis, 250 g ai/ha, Flood; 0 to 100 scale where 0 is no effect and 100 is complete control; read-out: Sedge, Umbrella plant response rating
How it was run: as §2

Row | Compound | pest or weed control at 31 g/ha (Kochia (Kochia scoparia) [1]) [%] | pest or weed control at 125 g/ha (Kochia (Kochia scoparia) [1]) [%] | pest or weed control at 31 g/ha [2] [%] | pest or weed control at 125 g/ha [2] [%] | pest or weed control at 31 g/ha [3] [%] | pest or weed control at 125 g/ha [3] [%] | pest or weed control at 31 g/ha [4] [%] | pest or weed control at 125 g/ha [4] [%] | pest or weed control at 31 g/ha [5] [%] | pest or weed control at 125 g/ha [5] [%] | pest or weed control at 31 g/ha [6] [%] | pest or weed control at 125 g/ha [6] [%] | pest or weed control at 125 g/ha [7] [%] | pest or weed control at 31 g/ha [7] [%] | pest or weed control at 125 g/ha (Kochia (Kochia scoparia) [8]) [%] | pest or weed control at 31 g/ha (Kochia (Kochia scoparia) [8]) [%] | pest or weed control at 125 g/ha [9] [%] | pest or weed control at 31 g/ha [9] [%] | pest or weed control at 125 g/ha [10] [%] | pest or weed control at 31 g/ha [10] [%] | also measured
1 | CON1CC[C@H](c2cccc(C(F)(F)F)c2)[C@@H](C(=O)Nc2ccccc2C(F)(F)F)C1=O [Compound 1172] | 0 | 0 | 0 | 0 | 0 | 0 | 0 | 0 | 0 | 0 | 0 | 0 | 0 | 0 | 0 | 0 | 0 | 0 | 0 | 0 | plant injury at 125 g/ha (corn (Zea mays)): 0%; Corn plant response rating (crop injury, 0 = no effect, 100 = complete kill) at 31 g/ha (corn (Zea mays)): 0%; pest or weed control at 125 g/ha [11]: 0%; pest or weed control at 31 g/ha [11]: 0%; pest or weed control at 125 g/ha [12]: 0%; pest or weed control at 125 g/ha [13]: 0%; pest or weed control at 125 g/ha [14]: 0%; plant injury at 125 g/ha [15]: 0%; pest or weed control at 250 g/ha [16]: 0%; pest or weed control at 250 g/ha [17]: 0%; pest or weed control at 250 g/ha (rice (Oryra sativa)): 0%; pest or weed control at 250 g/ha [18]: 0%
2 | CN1C[C@H](c2ccc(C(F)(F)F)c(O)c2)[C@@H](C(=O)Nc2cccc(F)c2F)C1=O [Compound 1173] | 0 | 20 | 60 | 90 | 30 | 80 | 0 | 0 | 0 | 40 | 0 | 30 | 50 | 0 | 50 | 30 | 70 | 50 | 0 | 0 | plant injury at 125 g/ha (corn (Zea mays)): 0%; Corn plant response rating (crop injury, 0 = no effect, 100 = complete kill) at 31 g/ha (corn (Zea mays)): 0%; pest or weed control at 125 g/ha [11]: 80%; pest or weed control at 31 g/ha [11]: 70%; pest or weed control at 125 g/ha [12]: 50%; pest or weed control at 125 g/ha [13]: 10%; pest or weed control at 125 g/ha [14]: 20%; plant injury at 125 g/ha [15]: 0%; pest or weed control at 250 g/ha [16]: 60%; pest or weed control at 250 g/ha [17]: 90%; pest or weed control at 250 g/ha (rice (Oryra sativa)): 25%; pest or weed control at 250 g/ha [18]: 0%
3 | CN1CC[C@H](c2ccc3c(c2)OC(F)(F)O3)[C@@H](C(=O)Nc2cccc(Cl)c2F)C1=O [Compound 1174] | 0 | 0 | 80 | 100 | 80 | 90 | 0 | 0 | 0 | 0 | 0 | 40 | 0 | 0 | 0 | 0 | 70 | 70 | 0 | 0 | plant injury at 125 g/ha (corn (Zea mays)): 50%; Corn plant response rating (crop injury, 0 = no effect, 100 = complete kill) at 31 g/ha (corn (Zea mays)): 0%; pest or weed control at 125 g/ha [11]: 80%; pest or weed control at 31 g/ha [11]: 40%; pest or weed control at 125 g/ha [12]: 0%; pest or weed control at 125 g/ha [13]: 0%; pest or weed control at 125 g/ha [14]: 0%; plant injury at 125 g/ha [15]: 30%; pest or weed control at 250 g/ha [16]: 70%; pest or weed control at 250 g/ha [17]: 90%; pest or weed control at 250 g/ha (rice (Oryra sativa)): 20%; pest or weed control at 250 g/ha [18]: 0%
